“And” between values parts separate entries of the source, which are not always exact repeats. Identical values can stand only once.
Experiments:
human platelets [1] = assay: Loading of platelets with trehalose (anthrone quantification); assay type: cell-based; conditions: 37° C., from 0 to 2 hours
Experimental: Washing of Platelets. Platelet concentrations were obtained from the Sacramento blood center or from volunteers in our laboratory. Platelet rich plasma was centrifuged for 8 minutes at 320×g to remove erythrocytes and leukocytes. The supernatant was pelleted and washed two times (480×g for 22 minutes, 480×g for 15 minutes) in buffer A (100 MM NaCl, 10 MM KCl, 10 mM EGTA, 10 mM imidazole, pH 6.8). Platelet counts were obtained on a Coulter counter T890 (Coulter, Inc., Miami, Fla.).
Loading of Platelets with Trehalose. Washed platelets in a concentration of 1-2 10^9 platelets/ml were incubated at various temperatures in the presence of 1-20 mg/ml trehalose. […] The amount of trehalose in the platelets was quantified using the anthrone reaction (Umbreit et al., Mamometric and Biochemical Techniques, 5th Edition, 1972). […] Then the samples were cooled on ice and the absorbance was measured at 620 nm on a Perkin Elmer spectrophotometer. The amount of platelet associated trehalose was determined using a standard curve of trehalose.
Quantification of Trehalose and LYCH Concentration. Uptake was calculated for each sample as micrograms of trehalose or LYCH per platelet. The internal trehalose concentration was calculated assuming a platelet radius of 1.2 μm and by assuming that 50% of the platelet volume is taken up by the cytosol (rest is membranes). […]

mesenchymal stem cells = assay: Growth curves of mesenchymal stem cells with 90 mM trehalose; assay type: cell-based, human
Experimental: Growth Curves. MSCs were plated into 12-welled plates at approximately the same seeding density used for T-185 flasks in standard Osiris protocols (5900 cells/cm^2 with fluid volume of 0.189 mL/cm^2). Three wells for each condition at each time point were trypsinized and counted. Data for cells grown in the presence of trehalose were lost for the first two time points. FIG. 13 is a graph illustrating growth curves for the mesenchymal stem cells in the presence or absence of 90 mM trehalose with the open triangle data representing cells grown in standard medium for 24 hours, after which 90 mM trehalose was added.

human platelets [2] = assay: Stability of platelets during trehalose incubation (microscopy, flow cytometric analysis); assay type: cell-based
Experimental: The uptake of trehalose is linear in the range from 0 to 30 mM external trehalose. The highest internal trehalose concentration is obtained with 50 mM external trehalose. At higher concentrations than 50 mM the internal trehalose concentration decreases again. Even when the loading buffer at these high trehalose concentrations is corrected for isotonicity by adjusting the salt concentration, the loading efficiency remains low. Platelets become swollen after 4 hours incubation in 75 mM trehalose.
The stability of the platelets during a 4 hours incubation period was studied using microscopy and flow cytometric analysis. […] No signs of microvesicle formation could be observed after 4 hours incubation, as can be judged by the stable relative proportion of microvesicle gated cells (less than 3%). The formation of microvesicles is usually considered as the first sign of platelet activation (Owners et al., Trans. Med. Rev., 8, 27-44, 1994). Characteristic antigens of platelet activation include: glycoprotein 53 (gp53, a lysosomal membrane marker), PECAM-1 (platelet endothelial cell adhesion molecule-1, an alpha granule constituent), and P-selection (an alpha granule membrane protein).

[3] = State diagram (glass transition temperature vs water content) by differential scanning calorimeter; assay type: physicochemical; conditions: FIG. 40, assuming sample temperature of −50° C.
From the text: In another embodiment of the invention, it has been discovered that protein alters the physical properties of a preservative solution. More specifically, it has been discovered that the protein albumin alters the physical properties of the oligosaccharide trehalose solution as broadly illustrated in FIG. 40, which are graphs representing state diagrams (e.g., glass transition temperature vs. water content) for trehalose:water mixtures and for trehalose-albumin(1/1, wt/wt):water mixtures. A state diagram is a measure of the glass transition temperatures (Tg) for the respective mixtures (i.e., the various preservative:water mixtures and the various preservative-protein:water mixtures). The state diagrams broadly illustrated in FIG. 40 were obtained by respectively freeze-drying trehalose alone and freeze-drying a 1:1 (wt:wt) trehalose:albumin solution, and then adding back known amounts of water to the respective freeze-dried solutions. The glass transition temperatures for the trehalose:water solution and for the trehalose/albumin:solution were measured by a differential scanning calorimeter with conventional methods.

erythrocyte membranes = assay: FTIR membrane phase transitions of erythrocytes
[4] = erythrocytes incubated 37° C. one hour with MβCD

## OC[C@H]1O[C@H](O[C@H]2O[C@H](CO)[C@@H](O)[C@H](O)[C@H]2O)[C@H](O)[C@@H](O)[C@@H]1O [trehalose]
Human platelets [1]
  trehalose uptake: 2.8×10^−11 mol/m^2s
Mesenchymal stem cells; after the third day
  effect on growth of the cells: cell count started to drop significantly
Mesenchymal stem cells; up to the third day
  effect on growth of the cells: did not interfere with growth of the cells
Human platelets [2]; 4 hours at 37° C., 25 mM external trehalose
  morphological changes: No morphological changes
Human platelets [2]; 4 hours incubation at 37° C. in 75 mM trehalose
  platelet morphology: swollen
Human platelets [2]; 4 hours incubation, flow cytometry
  relative proportion of microvesicle gated cells: less than 3%
[3]
  water content at which sample enters the glassy state: below 0.15 gram H2O/gram dry wt

## CC(C)c1c(C(=O)Nc2ccccc2)c(-c2ccccc2)c(-c2ccc(F)cc2)n1CC[C@@H](O)C[C@@H](O)CC(=O)O [LIPITOR]
Erythrocyte membranes; from −5 to 45° C., erythrocytes of a donor who used LIPITOR (other donors 0.8)
  total wavenumber excursion: ~1.5 cm⁻¹

## methyl-β-cyclodextrin [MβCD]
Erythrocyte membranes; [4]
  High Transition, Cooperativity: 0.091 ± 0.020 cm^−1/° C.
  High Transition, Transition Temperature: 35.4 ± 1.5 °C
  Low Transition, Cooperativity: 0.051 ± 0.004 cm^−1/° C.
  Low Transition, Transition Temperature: 15.3 ± 0.8 °C
  Middle Transition, Cooperativity: 0.095 ± 0.015 cm^−1/° C.
  Middle Transition, Transition Temperature: 25 °C and 26.0 ± 0.8 °C
Erythrocyte membranes; from −5 to 45° C., after cholesterol removal (control 0.7)
  wavenumber excursion of lipid CH2 band: 2.9 cm⁻¹

From US20060223050A1, “Therapeutic platelets and methods” (The Regents of the University of California Office of …, priority 2003, published 2006)
